IC50 data for one molecule are collected here from patent publication US20100216795A1, “TNIK INHIBITOR AND THE USE” (priority 2008, published 2010).

A word on the IC50: it is the point on the concentration scale where inhibition reaches its midpoint.

Common to all, as to type: biochemical
Experiment [1] deals with T1, human TNIK (N-terminal segment, TNIK_N) (Homo sapiens, UniProt Q9UKE5).
T1 construct: made in house; host or cells: Sf21 insect cells (baculovirus)
Put plainly: TNIK kinase assay (mobility shift). To be noted: stated in text of Test Example 2. From the text: A cDNA encoding the N-terminal segment (TNIK_N, residues 1-314) containing the kinase domain of human TNIK (NM_015028.1) was amplified from cDNA mixture synthesized from human tissue (Biochain) by PCR using the following primers: 5′-[…]-3′ ([SEQ ID NO:1]: forward primer, the underlined nucleotides indicates the location of a EheI site); 5′-[…]-3′ ([SEQ ID NO:2]: reverse primer, the underlined nucleotides indicates the location of a NotI site). The cDNA was subcloned into baculovirus transfer vector pFastBac_GSTb that includes protease cleavage site and glutathione S-transferase purification tag (GST-tag). The plasmid was purified and the insertion of the pFastBac_GSTb-TNIK_N was confirmed by DNA sequencing. Then E. coli DH10Bac competent cells were transformed with the plasmid to prepare the recombinant bacmid according to the instructions for the Bac-to-Bac™ baculovirus expression systems (Invitrogen). The Sf9 cells were transfected with the recombinant bacmid containing pFastBac_GSTb-TNIK_N using Cellfectin Reagent (Invitrogen) in SF-900II serum free media (Invitrogen). The viral supernatant was collected from the medium 72 h after transfection. The virus was amplified three times by infecting actively growing Sf9 or Sf21 cells in Grace's insect media (Invitrogen) supplemented with 10% FCS and an antibiotic-antimycotic reagent (Invitrogen) for 72 h at 27° C. in T-flask or roller bottles. The titer of amplified TNIK_N virus was estimated at 2.36×10^8 pfu/ml by using BacPAK™ Baculovirus Rapid Titer kit (Clontech).
Log-phase Sf21 cells (2×10^6 cells/ml) in the Grace's insect media were infected with the recombinant baculovirus at MOI of 3.0 and incubated in roller bottles (250 ml media per bottle) for 72 h at 27° C., after which, the cells were collected by centrifugation, and the cell pellet washed with cold PBS and kept at −80° C. until purification. The following purification procedures were carried out at 4° C. The frozen cells were thawed on ice and lysed in lysis buffer (50 mM Tris-HCl, pH 7.5, 150 mM NaCl, 1% Nonidet P-40, 5 mM DTT, 0.5 mM EDTA, 0.5 mM EGTA) supplemented with 1 mM phenylmethansulfonylfluoride, 2 μg/ml leupeptin, 2 μg/ml aprotinin, 1 mM NaF, 100 μM sodium orthovanadate, and 1 μM cantharidin by sonication. The suspended lysate was cleared by centrifugation at 9000 g for 20 min and the supernatant was incubated for 1 h with glutathione Sepharose beads (GE Healthcare). The beads were suspended in buffer-H (50 mM Tris-HCl, pH 7.5, 1 M NaCl, 1 mM DTT, 0.5 mM EDTA, 0.5 mM EGTA and 0.05% Brij35) and washed with buffer-H followed by buffer-L (50 mM Tris-HCl, pH 7.5, 150 mM NaCl, 1 mM DTT, 0.5 mM EDTA, 0.5 mM EGTA, 0.05% Brij35) in an Econo-pack column (BIO-RAD). The bound TNIK_N was eluted with elution buffer (50 mM Tris-HCl, pH 8.0, 150 mM NaCl, 1 mM DTT, 10% glycerol, 0.5 mM EDTA, 0.5 mM EGTA and 5 mM reduced glutathione). The eluted fractions were collected and determined the protein concentration by Bradford reagent (BIO-RAD). The TNIK_N fractions were pooled and desalted using 10DG column (BIORAD) equilibrated with the storage buffer (50 mM Tris-HCl, pH 7.5, 150 mM NaCl, 1 mM DTT, 10% glycerol, 0.05% Brij35). The purified TNIK_N was characterized by electrophoresis using 4-20% polyacrylamide gels and matrix-assisted laser desorption/ionization reflection time-of-flight (MALDI-TOF) mass spectrometry on a Voyager-DE RP MALDI/TOF (Applied Biosystems). TNIK_N was confirmed by the molecular weight and MASCOT Peptide Mass Fingerprint.
The kinase assays were conducted in a 20 μl volume using 384-well plates (Greiner). The reaction mixture consists of compound or vehicle (1% DMSO), 0.08 ng/μl TNIK_N, 1 μM FITC-labeled substrate peptides, FITC-x-Lys-Tyr-Lys-Thr-Leu-Arg-Gln ([SEQ ID NO.3], x: ε-aminocaproic acid), 20 mM Hepes, pH 7.5, 0.01% Triton X-100, 5 mM MgCl2, 25 μM ATP and 2 mM DTT. As blank, TNIK_N was excluded from the reaction mixture of vehicle (1% DMSO). […]

For another experiment, the target named is T2, SRC (Homo sapiens, UniProt P12931).
T2 construct: purchased Carna Biosciences
T2 sequence (P12931 whole entry): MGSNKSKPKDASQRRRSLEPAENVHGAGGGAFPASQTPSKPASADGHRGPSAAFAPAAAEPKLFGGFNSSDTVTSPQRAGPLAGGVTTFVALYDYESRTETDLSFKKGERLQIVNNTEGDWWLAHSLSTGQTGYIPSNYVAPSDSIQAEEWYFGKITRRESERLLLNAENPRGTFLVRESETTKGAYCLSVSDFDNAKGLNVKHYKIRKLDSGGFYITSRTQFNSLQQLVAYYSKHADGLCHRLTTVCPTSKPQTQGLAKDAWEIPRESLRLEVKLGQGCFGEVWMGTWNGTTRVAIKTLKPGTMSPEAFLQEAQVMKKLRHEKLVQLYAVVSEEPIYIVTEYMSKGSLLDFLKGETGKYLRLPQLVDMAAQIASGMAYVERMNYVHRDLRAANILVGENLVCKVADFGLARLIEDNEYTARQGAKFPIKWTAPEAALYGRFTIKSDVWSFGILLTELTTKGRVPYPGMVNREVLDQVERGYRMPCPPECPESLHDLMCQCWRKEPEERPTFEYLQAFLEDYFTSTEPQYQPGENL
Put plainly: Selectivity profiling, QuickScout TK Screening Panel. As for the experimental part:
(§1) The inhibitory effects of Compound 1 against 20 tyrosine kinases and 30 serine/threonine kinases were investigated using QuickScout™ TK and STK Screening Panel (Carna Biosciences, Kobe Japan). […] The results reveal that Compound 1 inhibits TNIK_N more potently (IC50; 9 nM) than the other 50 kinases.

For a further experiment, the target named is T3, JAK3 (Homo sapiens, UniProt P52333).
T3 construct: purchased Carna Biosciences
T3 sequence (P52333 whole entry): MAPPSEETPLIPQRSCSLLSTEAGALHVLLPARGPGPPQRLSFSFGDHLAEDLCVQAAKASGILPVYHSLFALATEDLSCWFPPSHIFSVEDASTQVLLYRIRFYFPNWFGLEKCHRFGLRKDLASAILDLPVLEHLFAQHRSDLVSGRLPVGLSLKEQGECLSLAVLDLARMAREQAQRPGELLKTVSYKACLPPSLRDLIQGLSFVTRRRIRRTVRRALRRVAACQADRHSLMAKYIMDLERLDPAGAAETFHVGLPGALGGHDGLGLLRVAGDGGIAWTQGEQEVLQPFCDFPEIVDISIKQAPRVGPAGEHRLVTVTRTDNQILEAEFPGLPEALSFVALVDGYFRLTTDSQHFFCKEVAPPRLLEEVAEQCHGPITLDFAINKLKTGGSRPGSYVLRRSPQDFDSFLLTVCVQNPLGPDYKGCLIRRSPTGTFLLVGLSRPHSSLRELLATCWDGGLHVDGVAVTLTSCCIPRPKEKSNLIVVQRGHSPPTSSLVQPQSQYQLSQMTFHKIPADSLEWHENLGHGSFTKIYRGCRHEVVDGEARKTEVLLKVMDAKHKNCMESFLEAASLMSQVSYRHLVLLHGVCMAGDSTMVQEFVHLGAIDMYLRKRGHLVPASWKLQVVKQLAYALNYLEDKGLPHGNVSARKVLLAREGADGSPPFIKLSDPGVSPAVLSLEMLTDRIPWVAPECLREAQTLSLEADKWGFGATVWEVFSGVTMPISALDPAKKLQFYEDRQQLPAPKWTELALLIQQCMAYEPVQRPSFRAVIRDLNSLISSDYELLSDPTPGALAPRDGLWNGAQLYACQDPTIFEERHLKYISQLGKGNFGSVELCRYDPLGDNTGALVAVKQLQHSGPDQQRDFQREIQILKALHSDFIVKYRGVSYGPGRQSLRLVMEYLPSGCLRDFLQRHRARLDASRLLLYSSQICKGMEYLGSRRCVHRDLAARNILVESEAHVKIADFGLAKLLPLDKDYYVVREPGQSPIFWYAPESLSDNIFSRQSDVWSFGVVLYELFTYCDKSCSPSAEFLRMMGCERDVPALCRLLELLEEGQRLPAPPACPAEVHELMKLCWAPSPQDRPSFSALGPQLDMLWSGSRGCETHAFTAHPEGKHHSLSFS
Described as above. The procedure: as §1

The target in another experiment is T4, ABL (Homo sapiens, UniProt P00519).
T4 construct: purchased Carna Biosciences
T4 sequence (P00519 whole entry): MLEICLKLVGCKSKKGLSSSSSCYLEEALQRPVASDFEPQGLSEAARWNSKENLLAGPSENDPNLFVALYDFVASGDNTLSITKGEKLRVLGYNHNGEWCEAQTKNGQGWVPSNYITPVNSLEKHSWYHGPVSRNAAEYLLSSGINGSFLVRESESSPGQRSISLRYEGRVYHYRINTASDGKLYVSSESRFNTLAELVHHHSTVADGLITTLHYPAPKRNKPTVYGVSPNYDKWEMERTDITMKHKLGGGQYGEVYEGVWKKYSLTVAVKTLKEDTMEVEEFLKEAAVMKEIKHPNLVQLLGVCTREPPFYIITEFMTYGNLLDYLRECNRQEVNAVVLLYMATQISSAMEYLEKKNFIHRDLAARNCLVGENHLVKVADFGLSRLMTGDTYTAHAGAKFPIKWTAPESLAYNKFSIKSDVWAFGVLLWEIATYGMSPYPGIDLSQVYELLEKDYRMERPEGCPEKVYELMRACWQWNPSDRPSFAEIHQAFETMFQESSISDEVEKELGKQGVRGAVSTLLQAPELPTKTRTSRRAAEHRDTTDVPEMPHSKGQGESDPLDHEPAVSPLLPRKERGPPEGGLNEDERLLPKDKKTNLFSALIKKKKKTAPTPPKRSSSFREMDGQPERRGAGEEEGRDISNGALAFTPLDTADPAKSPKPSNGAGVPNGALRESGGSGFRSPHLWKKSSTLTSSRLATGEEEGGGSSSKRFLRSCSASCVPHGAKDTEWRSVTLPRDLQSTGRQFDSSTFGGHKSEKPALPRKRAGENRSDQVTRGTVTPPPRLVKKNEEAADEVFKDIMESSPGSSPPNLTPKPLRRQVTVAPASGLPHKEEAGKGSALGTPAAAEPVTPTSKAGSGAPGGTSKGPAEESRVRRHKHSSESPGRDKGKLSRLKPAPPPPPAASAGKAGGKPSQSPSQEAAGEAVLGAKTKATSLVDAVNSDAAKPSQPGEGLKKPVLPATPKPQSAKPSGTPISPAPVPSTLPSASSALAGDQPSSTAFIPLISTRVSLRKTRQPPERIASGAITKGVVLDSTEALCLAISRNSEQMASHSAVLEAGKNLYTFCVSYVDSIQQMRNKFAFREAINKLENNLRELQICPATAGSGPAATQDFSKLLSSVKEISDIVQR
The description is as above. The procedure:
as §1

The next experiment has as its target T5, FGFR1 (Homo sapiens, UniProt P11362).
T5 construct: purchased Carna Biosciences
Described as above. As for the experimental part: as §1

The next experiment has as its target T6, LCK (Homo sapiens, UniProt P06239).
T6 construct: purchased Carna Biosciences
Described as above. As for the experimental part:
as §1

The target in a further experiment is T7, MET (Homo sapiens, UniProt P08581).
T7 construct: purchased Carna Biosciences
The experiment is described as above. The procedure:
as §1

A further experiment addresses T8, TRKA (Homo sapiens, UniProt P04629).
T8 construct: purchased Carna Biosciences
The description is as above. The procedure:
as §1

The next experiment addresses T9, EphB4 (Homo sapiens, UniProt P54760).
T9 construct: purchased Carna Biosciences
The experiment is described as above. As for the experimental part: as §1

A further experiment deals with T10, CSK (Homo sapiens, UniProt P41240).
T10 construct: purchased Carna Biosciences
The experiment is described as above. The procedure: as §1

T9 sequence (P54760 16-987): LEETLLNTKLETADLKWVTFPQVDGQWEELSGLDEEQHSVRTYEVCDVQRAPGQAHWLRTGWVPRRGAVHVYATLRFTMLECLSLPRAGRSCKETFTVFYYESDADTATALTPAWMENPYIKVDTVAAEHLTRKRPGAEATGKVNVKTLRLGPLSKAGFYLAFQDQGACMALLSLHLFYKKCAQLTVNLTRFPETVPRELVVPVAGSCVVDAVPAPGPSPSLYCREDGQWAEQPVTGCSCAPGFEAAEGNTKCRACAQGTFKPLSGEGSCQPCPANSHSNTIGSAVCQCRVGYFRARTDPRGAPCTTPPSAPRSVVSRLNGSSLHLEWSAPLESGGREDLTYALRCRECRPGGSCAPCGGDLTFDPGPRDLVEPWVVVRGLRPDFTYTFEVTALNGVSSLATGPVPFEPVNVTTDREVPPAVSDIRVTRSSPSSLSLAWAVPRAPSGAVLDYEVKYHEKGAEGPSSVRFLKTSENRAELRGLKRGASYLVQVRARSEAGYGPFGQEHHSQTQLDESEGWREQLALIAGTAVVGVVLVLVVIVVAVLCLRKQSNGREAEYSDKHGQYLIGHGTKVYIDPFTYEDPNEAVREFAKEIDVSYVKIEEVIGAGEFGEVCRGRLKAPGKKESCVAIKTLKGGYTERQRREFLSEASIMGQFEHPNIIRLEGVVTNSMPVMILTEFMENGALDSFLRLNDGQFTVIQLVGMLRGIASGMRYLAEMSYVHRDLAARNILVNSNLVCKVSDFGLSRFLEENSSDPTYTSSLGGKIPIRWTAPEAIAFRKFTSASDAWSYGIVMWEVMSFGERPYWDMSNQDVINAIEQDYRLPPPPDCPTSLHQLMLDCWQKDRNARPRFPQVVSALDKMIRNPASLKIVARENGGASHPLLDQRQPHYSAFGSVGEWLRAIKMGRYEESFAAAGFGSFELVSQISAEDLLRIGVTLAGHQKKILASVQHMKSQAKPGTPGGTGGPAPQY
T6 sequence (P06239 whole entry): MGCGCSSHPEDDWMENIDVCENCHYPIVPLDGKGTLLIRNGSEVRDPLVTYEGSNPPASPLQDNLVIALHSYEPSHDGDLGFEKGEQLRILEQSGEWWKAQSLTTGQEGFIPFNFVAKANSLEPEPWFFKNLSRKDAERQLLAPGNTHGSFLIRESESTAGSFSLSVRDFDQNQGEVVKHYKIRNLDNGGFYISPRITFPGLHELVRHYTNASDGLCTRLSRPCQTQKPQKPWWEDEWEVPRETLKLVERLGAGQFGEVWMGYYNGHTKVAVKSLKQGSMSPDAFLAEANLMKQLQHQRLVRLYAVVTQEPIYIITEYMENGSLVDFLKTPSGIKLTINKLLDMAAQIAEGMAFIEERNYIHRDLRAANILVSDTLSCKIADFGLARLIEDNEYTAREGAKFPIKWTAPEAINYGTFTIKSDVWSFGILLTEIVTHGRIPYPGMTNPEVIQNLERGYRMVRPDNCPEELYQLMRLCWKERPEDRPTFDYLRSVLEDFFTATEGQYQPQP
T8 sequence (P04629 33-796): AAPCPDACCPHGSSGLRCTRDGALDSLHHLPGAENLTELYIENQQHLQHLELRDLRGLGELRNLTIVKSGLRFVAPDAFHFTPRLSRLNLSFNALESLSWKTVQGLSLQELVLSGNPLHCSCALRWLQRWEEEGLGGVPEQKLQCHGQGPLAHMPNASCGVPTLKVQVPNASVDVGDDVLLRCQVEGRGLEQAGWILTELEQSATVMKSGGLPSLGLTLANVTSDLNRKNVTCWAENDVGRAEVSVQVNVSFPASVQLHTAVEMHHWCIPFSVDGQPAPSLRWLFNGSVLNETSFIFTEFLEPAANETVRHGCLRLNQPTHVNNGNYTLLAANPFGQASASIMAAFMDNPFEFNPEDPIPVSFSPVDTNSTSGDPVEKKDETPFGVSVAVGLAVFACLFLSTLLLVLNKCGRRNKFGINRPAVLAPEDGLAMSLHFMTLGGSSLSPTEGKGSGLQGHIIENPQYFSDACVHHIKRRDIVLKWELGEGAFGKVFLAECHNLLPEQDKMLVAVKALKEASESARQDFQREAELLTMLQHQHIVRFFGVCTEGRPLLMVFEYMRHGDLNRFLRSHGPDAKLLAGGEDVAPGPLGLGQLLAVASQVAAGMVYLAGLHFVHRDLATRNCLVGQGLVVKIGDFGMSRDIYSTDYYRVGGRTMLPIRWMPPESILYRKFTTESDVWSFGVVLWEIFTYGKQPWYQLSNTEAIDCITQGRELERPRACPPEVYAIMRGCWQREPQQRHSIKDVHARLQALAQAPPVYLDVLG

As for `CC(=O)Nc1ccc(C(=O)Nc2sc(Nc3ccccc3)nc2C(N)=O)cc1` [Compound 1, 5-(4-acetamidobenzamido)-2-(phenylamino)thiazole-4-carboxamide], the half-inhibitory concentration (IC50) in [1] is 9 nM; on SRC, more than 300 nM; against JAK3 it was more than 300 nM; at ABL, 290 nM; against FGFR1, more than 300 nM; on LCK, more than 300 nM. Besides, the IC50 at MET, at TRKA, against EphB4 and on CSK was more than 300 nM throughout.
